The values below come from patent publication US20090137572A1, “2-substituted-4-heteroaryl-pyrimidines useful for the treatment of proliferative disorders” (priority 2004, published 2009).

SMILES strings stand for the structures.

For orientation: remaining activity means the signal under treatment as a percentage of the control signal.

Format in all cases: biochemical
One assay addresses CDK4-cyclin D1 (Homo sapiens, UniProt P11802). In words: Kinase assay (radioactive phosphate incorporation), CDK4-cyclin D1. To be noted: read-out: Kinase Inhibition pIC50 CDK4-cyclin D1 (converted). The procedure, abridged:
(§1)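 Inhibition measured as 32P transfer from ATP (100 μM, 15 mM MgCl2) onto peptide substrates at 30° C. Each assay used 2-4 μg active recombinant enzyme in pH 7.4 buffer. Reactions stopped on ice, filtered, acid-washed and counted; compounds diluted into 10% DMSO in assay buffer.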

For the next assay, the target named is CDK2-cycline E (Homo sapiens, UniProt P24941). In words: Kinase assay (radioactive phosphate incorporation), CDK2-cyclin E. The note with it: read-out: Kinase Inhibition pIC50 CDK2-cycline E (converted). The gist of the method:
as §1

Assay [1] deals with T1, GSK3b (Homo sapiens, UniProt P49841). As to the kind of experiment: Kinase assay (radioactive phosphate incorporation), GSK-3b. To be noted: read-out: Kinase Inhibition pIC50 GSK-3b (converted). The gist of the method: as §1
Another assay relates to PKB. As to the kind of experiment: Kinase selectivity profile, PKB. The note with it: 5 μM test compound, compared to control; ATP 5 μM (PKBΔph). The method, then:
(§2) The kinase selectivity profiles of selected example compounds were determined, essentially as described (Bain, J.; McLauchlan, H.; Elliott, M.; Cohen, P. Biochemical Journal, 2003, 371, 199.); the results are shown in Tables 3 & 4. For the assays shown in Table 3, the kinases were assayed at the following ATP concentrations: SAPK4, PKBΔph, GSK3b, SAPK3, CK2, MKK1, PIM2, IKKB, ERK8, and PRK2 at 5 μM; JNK, PRAK, ROCK-II, SAPK2b, CDK2, CHK1, MSK1, CSK, P70S6K, PKA, CK1, MAPKAP-K2, SGK, PKCa, PDK1, NEK 7, and MAPKAP-K3 at 20 μM; SAPK2a, LCK, AMPK, MAPK2, DYRK1a, MAPKAP-K1a, NEK-6, NEK2a, PBK, CAMK-1, SRPK-1, JNK3, MNK2, RSK2, MNK1, PKBB, and SmMLCK at 50 μM. For the assays in Table 4 the ATP concentration was 100 μM throughout.

The subject of another assay is AMPK. In words: Kinase selectivity profile, AMPK. The note with it: 5 μM test compound, compared to control; ATP 50 μM. The protocol:
as §2

Another assay addresses PRK2 (Homo sapiens, UniProt Q16513). In words: Kinase selectivity profile, PRK2. To be noted: 5 μM test compound, compared to control; ATP 5 μM. The protocol:
as §2

The next assay has as its target MAPKAP-K2 (Homo sapiens, UniProt P49137). In words: Kinase selectivity profile, MAPKAP-K2. The note with it: 5 μM test compound, compared to control; ATP 20 μM. The protocol: as §2
The target in another assay is PKA (Homo sapiens, UniProt P17612). As to the kind of experiment: Kinase selectivity profile, PKA. The note with it: 5 μM test compound, compared to control; ATP 20 μM. The protocol:
as §2

Another assay concerns the target IKKb (Homo sapiens, UniProt O14920). In words: Kinase selectivity profile, IKKb. The note with it: 5 μM test compound, compared to control; ATP 5 μM. The method, then:
as §2

The next assay concerns the target MAPKAP-K1a (Homo sapiens, UniProt Q15418). In words: Kinase selectivity profile, MAPKAP-K1a. To be noted: 5 μM test compound, compared to control; ATP 50 μM. The protocol:
as §2

A further assay has as its target Lck (Homo sapiens, UniProt P06239). In words: Kinase selectivity profile, Lck. To be noted: 5 μM test compound, compared to control; ATP 50 μM. The protocol:
as §2

For a further assay, the target named is JNK/SAPK1c (Homo sapiens, UniProt P45983). As to the kind of experiment: Kinase selectivity profile, JNK/SAPK1c. To be noted: 5 μM test compound, compared to control; ATP 20 μM. The protocol:
as §2

Another assay concerns the target SAPK4/p38d (Homo sapiens, UniProt O15264). In words: Kinase selectivity profile, SAPK4/p38d. To be noted: 5 μM test compound, compared to control; ATP 5 μM. The protocol:
as §2

A further assay deals with PRAK (Homo sapiens, UniProt Q8IW41). In words: Kinase selectivity profile, PRAK. The note with it: 5 μM test compound, compared to control; ATP 20 μM. The protocol:
as §2

Assay [2] has as its target T1, GSK3b. As to the kind of experiment: Kinase selectivity profile, GSK3b. The note with it: 5 μM test compound, compared to control; ATP 5 μM. The protocol:
as §2

For the next assay, the target named is MNK2 (Homo sapiens, UniProt Q9HBH9). As to the kind of experiment: Kinase selectivity profile, MNK2. The note with it: 5 μM test compound, compared to control; ATP 50 μM. The method, then: as §2
In a further assay the target is NEK7 (Homo sapiens, UniProt Q8TDX7). As to the kind of experiment: Kinase selectivity profile, NEK7. To be noted: 5 μM test compound, compared to control; ATP 20 μM. The method, then: as §2
A further assay has as its target DYRK1a (Homo sapiens, UniProt Q13627). As to the kind of experiment: Kinase selectivity profile, DYRK1a. The note with it: 5 μM test compound, compared to control; ATP 50 μM. The method, then: as §2
For the next assay, the target named is PKBb (Homo sapiens, UniProt P31751). In words: Kinase selectivity profile, PKBb. The note with it: 5 μM test compound, compared to control; ATP 50 μM. The method, then:
as §2

The next assay addresses MAPK2/ERK2 (Homo sapiens, UniProt P28482). As to the kind of experiment: Kinase selectivity profile, MAPK2/ERK2. The note with it: 5 μM test compound, compared to control; ATP 50 μM. The protocol: as §2
The next assay deals with smMLCK (Homo sapiens, UniProt Q15746). In words: Kinase selectivity profile, smMLCK. The note with it: 5 μM test compound, compared to control; ATP 50 μM. The protocol:
as §2

A further assay deals with ROCK-II (Homo sapiens, UniProt O75116). As to the kind of experiment: Kinase selectivity profile, ROCK-II. To be noted: 5 μM test compound, compared to control; ATP 20 μM. The method, then:
as §2

In another assay the target is Aurora B (Homo sapiens, UniProt Q96GD4). As to the kind of experiment: Kinase selectivity profile, Aurora B. To be noted: 5 μM test compound, compared to control. The method, then: as §2
In a further assay the target is SRPK1 (Homo sapiens, UniProt Q96SB4). As to the kind of experiment: Kinase selectivity profile, SRPK1. The note with it: 5 μM test compound, compared to control; ATP 50 μM. The method, then: as §2
The next assay deals with PIM2 (Homo sapiens, UniProt Q9P1W9). As to the kind of experiment: Kinase selectivity profile, PIM2. The note with it: 5 μM test compound, compared to control; ATP 5 μM. The protocol:
as §2

For a further assay, the target named is SAPK2a/p38 (Homo sapiens, UniProt Q16539). In words: Kinase selectivity profile, SAPK2a/p38. To be noted: 5 μM test compound, compared to control; ATP 50 μM. The protocol:
as §2

T1 sequence (P49841 whole entry, species assumed): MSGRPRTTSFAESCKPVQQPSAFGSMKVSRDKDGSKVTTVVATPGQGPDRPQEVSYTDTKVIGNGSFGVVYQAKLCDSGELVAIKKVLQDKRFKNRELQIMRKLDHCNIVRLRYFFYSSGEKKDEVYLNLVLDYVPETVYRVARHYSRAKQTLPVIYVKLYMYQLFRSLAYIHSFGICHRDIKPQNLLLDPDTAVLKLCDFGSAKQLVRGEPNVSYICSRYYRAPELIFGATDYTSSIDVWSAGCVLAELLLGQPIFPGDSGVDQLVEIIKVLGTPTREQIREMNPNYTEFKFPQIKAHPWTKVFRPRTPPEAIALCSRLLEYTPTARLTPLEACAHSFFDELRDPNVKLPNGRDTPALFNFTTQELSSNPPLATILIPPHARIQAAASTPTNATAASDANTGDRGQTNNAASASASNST
Sequence of CDK4-cyclin D1 (P11802 whole entry): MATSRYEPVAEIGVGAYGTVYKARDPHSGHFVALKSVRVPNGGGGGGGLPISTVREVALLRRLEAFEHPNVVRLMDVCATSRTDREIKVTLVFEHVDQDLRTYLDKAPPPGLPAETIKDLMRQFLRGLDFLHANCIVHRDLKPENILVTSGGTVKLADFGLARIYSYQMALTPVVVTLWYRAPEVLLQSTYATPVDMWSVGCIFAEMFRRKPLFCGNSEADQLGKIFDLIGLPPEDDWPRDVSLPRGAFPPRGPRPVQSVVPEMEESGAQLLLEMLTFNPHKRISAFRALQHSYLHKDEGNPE
Sequence of CDK4-cyclin D1 (P24385 whole entry partner): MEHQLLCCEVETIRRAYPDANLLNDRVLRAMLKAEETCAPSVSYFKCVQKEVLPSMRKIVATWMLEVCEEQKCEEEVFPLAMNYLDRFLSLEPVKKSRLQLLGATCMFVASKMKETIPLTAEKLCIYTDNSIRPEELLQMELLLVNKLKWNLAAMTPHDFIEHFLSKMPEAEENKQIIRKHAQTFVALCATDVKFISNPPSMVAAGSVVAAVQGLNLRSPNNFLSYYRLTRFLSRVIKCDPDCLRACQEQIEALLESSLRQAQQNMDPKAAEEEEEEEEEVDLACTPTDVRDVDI
Sequence of SAPK2a/p38 (Q16539 whole entry): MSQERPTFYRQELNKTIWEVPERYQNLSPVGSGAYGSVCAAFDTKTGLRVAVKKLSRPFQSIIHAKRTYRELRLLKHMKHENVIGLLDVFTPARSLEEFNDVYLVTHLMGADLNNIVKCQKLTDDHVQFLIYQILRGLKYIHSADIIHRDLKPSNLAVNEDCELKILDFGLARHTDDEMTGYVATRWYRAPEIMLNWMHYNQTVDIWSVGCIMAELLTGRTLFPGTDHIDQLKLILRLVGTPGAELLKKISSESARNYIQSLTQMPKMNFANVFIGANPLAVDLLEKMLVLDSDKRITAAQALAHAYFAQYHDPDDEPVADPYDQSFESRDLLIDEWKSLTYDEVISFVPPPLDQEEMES
Sequence of PRK2 (Q16513 whole entry, species assumed): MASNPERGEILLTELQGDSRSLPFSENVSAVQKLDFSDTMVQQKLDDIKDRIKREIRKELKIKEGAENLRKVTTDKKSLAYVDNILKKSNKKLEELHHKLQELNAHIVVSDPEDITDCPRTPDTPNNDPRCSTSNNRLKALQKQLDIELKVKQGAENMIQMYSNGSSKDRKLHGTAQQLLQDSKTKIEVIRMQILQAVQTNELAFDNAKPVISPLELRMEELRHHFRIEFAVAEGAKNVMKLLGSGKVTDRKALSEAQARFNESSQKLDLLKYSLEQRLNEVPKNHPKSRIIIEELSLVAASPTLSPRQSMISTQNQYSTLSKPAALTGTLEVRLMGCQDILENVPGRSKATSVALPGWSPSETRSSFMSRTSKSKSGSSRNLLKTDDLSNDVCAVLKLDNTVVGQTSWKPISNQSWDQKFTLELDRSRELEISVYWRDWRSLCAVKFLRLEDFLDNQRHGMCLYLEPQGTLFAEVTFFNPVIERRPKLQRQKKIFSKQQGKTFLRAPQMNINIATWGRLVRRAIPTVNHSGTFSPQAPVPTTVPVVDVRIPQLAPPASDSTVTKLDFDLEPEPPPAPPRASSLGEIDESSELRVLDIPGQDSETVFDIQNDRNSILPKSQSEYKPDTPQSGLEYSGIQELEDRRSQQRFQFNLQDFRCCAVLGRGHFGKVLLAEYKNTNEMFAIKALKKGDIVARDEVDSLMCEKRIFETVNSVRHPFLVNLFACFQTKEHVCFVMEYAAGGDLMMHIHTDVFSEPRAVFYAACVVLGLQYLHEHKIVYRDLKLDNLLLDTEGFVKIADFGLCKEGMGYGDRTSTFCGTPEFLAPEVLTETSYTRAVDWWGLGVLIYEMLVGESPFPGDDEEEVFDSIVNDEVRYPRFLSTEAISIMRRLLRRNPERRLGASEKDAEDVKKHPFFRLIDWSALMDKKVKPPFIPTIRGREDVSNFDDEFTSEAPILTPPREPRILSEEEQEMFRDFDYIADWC
Sequence of MAPKAP-K2 (P49137 whole entry, species assumed): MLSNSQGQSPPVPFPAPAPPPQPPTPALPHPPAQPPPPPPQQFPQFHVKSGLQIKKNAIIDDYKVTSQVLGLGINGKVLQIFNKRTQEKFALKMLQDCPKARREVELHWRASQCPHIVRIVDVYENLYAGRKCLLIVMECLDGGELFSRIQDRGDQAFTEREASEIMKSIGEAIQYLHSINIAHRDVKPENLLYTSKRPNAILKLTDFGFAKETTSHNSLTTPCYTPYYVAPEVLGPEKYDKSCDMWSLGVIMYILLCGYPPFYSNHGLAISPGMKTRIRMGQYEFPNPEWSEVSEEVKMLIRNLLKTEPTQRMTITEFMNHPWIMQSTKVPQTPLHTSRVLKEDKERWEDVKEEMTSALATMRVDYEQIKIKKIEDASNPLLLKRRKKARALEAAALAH
Sequence of PIM2 (Q9P1W9 whole entry, species assumed): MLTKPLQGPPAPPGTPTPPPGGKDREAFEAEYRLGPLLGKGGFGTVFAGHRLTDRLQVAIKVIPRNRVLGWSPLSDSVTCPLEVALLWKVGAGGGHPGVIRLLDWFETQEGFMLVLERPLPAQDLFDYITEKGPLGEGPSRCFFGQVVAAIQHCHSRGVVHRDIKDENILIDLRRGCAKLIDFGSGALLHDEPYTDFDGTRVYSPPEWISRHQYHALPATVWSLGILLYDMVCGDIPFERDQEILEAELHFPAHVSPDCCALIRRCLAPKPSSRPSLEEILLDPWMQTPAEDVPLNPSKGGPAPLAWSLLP
Sequence of MAPK2/ERK2 (P28482 whole entry): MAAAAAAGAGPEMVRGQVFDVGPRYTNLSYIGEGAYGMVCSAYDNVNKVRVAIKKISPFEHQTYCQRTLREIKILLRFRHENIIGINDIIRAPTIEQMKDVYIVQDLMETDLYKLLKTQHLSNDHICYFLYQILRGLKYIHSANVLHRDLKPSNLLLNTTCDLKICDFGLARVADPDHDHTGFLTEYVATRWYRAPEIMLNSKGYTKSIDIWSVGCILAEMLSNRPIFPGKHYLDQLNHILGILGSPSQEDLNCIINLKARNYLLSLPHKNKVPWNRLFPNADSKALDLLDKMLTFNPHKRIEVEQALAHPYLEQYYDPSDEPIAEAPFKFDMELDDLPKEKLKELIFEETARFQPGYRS
Sequence of MAPKAP-K1a (Q15418 whole entry, species assumed): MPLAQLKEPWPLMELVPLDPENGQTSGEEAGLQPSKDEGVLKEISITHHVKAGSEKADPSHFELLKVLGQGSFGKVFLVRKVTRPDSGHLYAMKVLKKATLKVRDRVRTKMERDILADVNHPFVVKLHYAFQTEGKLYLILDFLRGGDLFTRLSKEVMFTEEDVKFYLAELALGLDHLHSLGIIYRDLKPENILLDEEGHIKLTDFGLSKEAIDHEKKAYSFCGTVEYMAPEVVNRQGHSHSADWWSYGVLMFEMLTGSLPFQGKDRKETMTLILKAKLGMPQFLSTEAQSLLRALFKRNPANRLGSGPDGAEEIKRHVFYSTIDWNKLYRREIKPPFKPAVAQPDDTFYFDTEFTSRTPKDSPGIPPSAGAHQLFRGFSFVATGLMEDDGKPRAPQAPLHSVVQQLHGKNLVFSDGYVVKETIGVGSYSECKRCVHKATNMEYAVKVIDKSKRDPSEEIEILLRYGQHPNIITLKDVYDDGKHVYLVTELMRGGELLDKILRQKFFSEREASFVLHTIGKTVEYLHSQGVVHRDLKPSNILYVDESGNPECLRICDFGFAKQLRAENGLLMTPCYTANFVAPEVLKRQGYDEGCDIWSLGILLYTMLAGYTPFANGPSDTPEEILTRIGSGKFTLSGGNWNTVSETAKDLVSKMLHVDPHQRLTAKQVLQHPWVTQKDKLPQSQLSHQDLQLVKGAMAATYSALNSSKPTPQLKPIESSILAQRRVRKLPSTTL
Sequence of Lck (P06239 whole entry, species assumed): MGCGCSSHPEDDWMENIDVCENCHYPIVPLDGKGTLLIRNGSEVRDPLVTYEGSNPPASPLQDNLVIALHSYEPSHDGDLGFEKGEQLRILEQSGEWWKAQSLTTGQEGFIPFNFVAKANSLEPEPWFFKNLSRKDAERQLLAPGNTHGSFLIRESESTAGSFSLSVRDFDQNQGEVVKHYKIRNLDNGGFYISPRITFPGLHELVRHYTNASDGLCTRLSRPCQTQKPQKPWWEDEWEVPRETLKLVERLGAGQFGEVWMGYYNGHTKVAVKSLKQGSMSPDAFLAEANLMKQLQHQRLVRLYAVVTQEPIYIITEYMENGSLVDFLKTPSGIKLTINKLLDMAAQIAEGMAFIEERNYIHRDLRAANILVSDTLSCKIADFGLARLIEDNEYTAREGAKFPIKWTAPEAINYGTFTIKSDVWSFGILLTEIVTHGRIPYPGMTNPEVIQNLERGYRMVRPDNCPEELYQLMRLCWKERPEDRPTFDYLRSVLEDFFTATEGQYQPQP

Take `CNc1nc(C)c(-c2ccnc(Nc3cccc(S(C)(=O)=O)c3)n2)s1` [Compound 27, (3-Methanesulfonyl-phenyl)-[4-(4-methyl-2-methylamino-thiazol-5-yl)-pyrimidin-2-yl]-amine]: the IC50 on CDK4-cyclin D1 is 158 nM; at CDK2-cycline E, 3.16 nM; at GSK3b [1] it was 100 nM.

With `CNc1nc(C)c(-c2ccnc(Nc3ccc(C)c(S(=O)(=O)N4CCOCC4)c3)n2)s1` [Compound 37, [4-(4-Methyl-2-methylamino-thiazol-5-yl)-pyrimidin-2-yl]-[4-methyl-3-(morpholine-4-sulfonyl)-phenyl]-amine], the IC50 on CDK2-cycline E is 3160 nM; at GSK3b [1], 1260 nM.

For the compound `CNc1nc(C)c(-c2ccnc(Nc3cccc(S(N)(=O)=O)c3)n2)s1` [Compound 19, 3-[4-(4-Methyl-2-methylamino-thiazol-5-yl)-pyrimidin-2-ylamino]-benzenesulfonamide], the IC50 on CDK4-cyclin D1 is 15.8 nM; at GSK3b [1], 158 nM.

For `CCNc1nc(C)c(-c2ccnc(Nc3ccc(N4CCNCC4)cc3)n2)s1` [Compound 59, [4-(2-Ethylamino-4-methyl-thiazol-5-yl)-pyrimidin-2-yl]-(4-piperazin-1-yl-phenyl)-amine], in the assay on PKB, the “Remaining activity (%) PKB” value worked out at 82%. For the same compound, in the assay on AMPK, the “Remaining activity (%) AMPK” value amounted to 2%. The remaining activity at 5 µM at PRK2 is 8%; at MAPKAP-K2, 84%; at PKA, 22%; at IKKb, 7%; at MAPKAP-K1a it was 14%; on Lck, 1%. Besides, the remaining activity at 5 µM at JNK/SAPK1c amounted to 2%; on SAPK4/p38d, 66%; on PRAK it was 44%; on GSK3b [2], 37%; at MNK2 it was 20%; at NEK7, 50%. In addition, the remaining activity at 5 µM at DYRK1a was determined as 4%; at PKBb, 75%; at MAPK2/ERK2, 59%; on smMLCK, 10%; on ROCK-II, 5%; at Aurora B, 4%. Further, the figures for the remaining activity at 5 µM on SRPK1, on PIM2 and at SAPK2a/p38 were 88%, 80% and 39%, respectively. In addition, the IC50 on CDK4-cyclin D1 was 39.8 nM; at CDK2-cycline E, 158 nM.

Turning to `Cc1ccc(Nc2nccc(-c3sc(N)nc3C)n2)cc1S(=O)(=O)N1CCOCC1` [Compound 38, [4-(2-Amino-4-methyl-thiazol-5-yl)-pyrimidin-2-yl]-[4-methyl-3-(morpholine-4-sulfonyl)-phenyl]-amine], at GSK3b [1], the IC50 was 2000 nM.

As to `Cc1nc(CS(=O)(=O)c2cccs2)sc1-c1ccnc(Nc2ccc(N3CCOCC3)cc2)n1` [Compound 138, {4-[4-Methyl-2-(thiophene-2-sulfonylmethyl)-thiazol-5-yl]-pyrimidin-2-yl}-(4-morpholin-4-yl-phenyl)-amine], the “Remaining activity (%) PKB” value in the assay on PKB came to 91%. Further, in the assay on AMPK, the “Remaining activity (%) AMPK” value amounted to 28%. Besides, the remaining activity at 5 µM amounted to 78% on PRK2; 84% on MAPKAP-K2; 29% at PKA; 34% on IKKb; 34% on MAPKAP-K1a; 7% at Lck. Besides, the remaining activity at 5 µM on JNK/SAPK1c turned out to be 10%; on SAPK4/p38d it was 85%; at PRAK, 59%; on GSK3b [2], 21%; on MNK2, 27%; at NEK7, 79%. The remaining activity at 5 µM on DYRK1a is 27%; on PKBb it was 92%; on MAPK2/ERK2 it was 39%; on smMLCK, 44%; on ROCK-II, 14%; on Aurora B it was 5%. Further, the remaining activity at 5 µM at SRPK1 was 110%; on PIM2, 93%; on SAPK2a/p38, 33%. On CDK2-cycline E, the IC50 is 3980 nM.

Regarding `COCCNS(=O)(=O)c1cccc(Nc2nccc(-c3sc(N)nc3C)n2)c1` [Compound 55, 3-[4-(2-Amino-4-methyl-thiazol-5-yl)-pyrimidin-2-ylamino]-N-(2-methoxy-ethyl)-benzenesulfonamide], the IC50 at CDK4-cyclin D1 was 1580 nM; on CDK2-cycline E it was 251 nM; at GSK3b [1] it was 501 nM.
